The target of test [1] is T1, mPAO (Mus musculus, UniProt Q8C0L6).
T1 construct: the full length cDNA of mpao was released by Nde I and Hind III treatment, and ligated into Nde I and Hind III sites of pET29c; made in house; host or cells: E. coli BL21 GOLD (DE3), plasmid pET-MPAO (pET29c)
Kind of test: Oxygraph assay of O2 consumption, progress-curve analysis. The test is classed as biochemical, murine. As for the experimental part: Some assays (oxygraph assays) were carried out by directly monitoring O2 consumption in air-saturated buffer ([O2]=0.237 mM) or buffer saturated with pure O2 at 30° C. ([O2]=1.12 mM). The depletion of O2 was detected with a Yellow Springs Instruments, Inc. Model 53 Oxygen Monitor equipped with a Clark electrode. […] Following a published procedure (Goudar et al., Biochim. Biophys. Acta 1429:377-383 [1999]), the data were fitted to the integrated Mechaelis-Menton equation. The analyses were done using Maple VI (Windows 2000) software (Waterloo Maple, Inc.) running on a PC computer. […] Inhibition by the H2O2, formed as a product of polyamine oxidation by mPAO, was assessed by addition of 2 μL of a 30 mg/mL (30,000 units/mg) solution of catalase, after [O2] reached zero.
The catalase immediately converted each mole of H2O2 to 0.5 mol of O2 (since [O2]=1.12 mM for pure O2-saturated buffer, then [O2]=0.56 mM immediately after catalase addition). In the presence of catalase, O2 depletion should occur at 0.5× the rate as it does in the absence of catalase (unless H2O2 inhibition is operating). With catalase present, each molecule of O2 will be converted eventually to H2O (4-electron equivalents), rather than to H2O2 (2-electron equivalents).

The target of test [2] is T1, mPAO. Nature of the test: HPLC analysis of PAO oxidation products. It counts as biochemical, murine. An excerpt: In this example, methods are described for determining the nature of the products of substrate oxidation by PAO. In a solution at pH 7.6 containing catalase to destroy H2O2, mPAO and N^1-acetyl-Spm, at known concentrations, were allowed to react until the latter had been completely oxidized. mPAO and N^1-acetyl-Spd were similarly allowed to react. Both reactions solutions contained a known amount of N-(3-aminopropyl)-1,10-diaminodecane (Tocris Cookson) as an internal standard. […] Aliquots of these reaction mixtures were treated with dansyl chloride (5-dimethylamino-1-naphthalenesulfonyl chloride) obtained from Sigma. The resulting dansylated polyamine products from each reaction were analyzed by reverse-phase high-pressure liquid chromatography (HPLC) following established procedures (Hunter, Methods in Molecular Biology: Polyamine Protocols, Morgan (ed.) Human Press, Totowa, N.J., Vol. 79, Chapter 14, pp 119-123). […] Detection was accomplished with a Gilson Spetra/Glo fluorescence detector using a 7-51× excitation filter (330-400 nm) and a 3-72M emission filter (460-600 n m). […]
Aliquots of each of the above described enzyme-reaction solutions were treated with an equal volume of 2,4-dinitrophenylhydrazine (Acros Organics) solution (100 mg in 94 mL ethanol+6 mL of concentrated HCl). […] The 368-nm chromatograms were used for quantitative analyses.

The text below walks through data of patent US20050143472A1, “Novel treatment for pathologies associated with oxidative damage” (priority 2002, published 2005).

What is called kcat is the number of substrate molecules converted per active site and unit of time at saturation.

T1 sequence (Q8C0L6 whole entry E184K/L285S/R416L/R417S/Q419R/E451A/V490I/S491G/V497A): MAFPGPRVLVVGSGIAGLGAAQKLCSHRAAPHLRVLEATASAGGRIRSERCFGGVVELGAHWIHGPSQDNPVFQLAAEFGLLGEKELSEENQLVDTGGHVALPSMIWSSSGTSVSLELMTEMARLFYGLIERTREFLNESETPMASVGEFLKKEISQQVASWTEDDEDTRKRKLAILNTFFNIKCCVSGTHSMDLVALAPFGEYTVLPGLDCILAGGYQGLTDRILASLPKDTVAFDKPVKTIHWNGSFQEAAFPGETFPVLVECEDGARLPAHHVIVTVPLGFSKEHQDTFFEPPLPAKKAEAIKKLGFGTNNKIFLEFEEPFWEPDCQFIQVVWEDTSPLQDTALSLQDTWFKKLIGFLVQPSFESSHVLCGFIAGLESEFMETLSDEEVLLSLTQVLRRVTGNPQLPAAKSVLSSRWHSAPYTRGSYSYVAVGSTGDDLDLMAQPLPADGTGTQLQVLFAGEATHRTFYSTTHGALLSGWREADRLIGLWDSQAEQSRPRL

As to `CC(=O)NCCCNCCCCNCCCN` [N^1-acetyl-Spm, N^1-acetyl-spermine], the KQ on mPAO [1] (Michaelis constant for O2, saturating amine substrate) turned out to be 180 ± 20 µM. For the same molecule, the kcat/KQ result at mPAO [1] (for O2, saturating amine substrate, pure O2-saturated buffer) is reported as “(4.4 ± 0.4) × 10^4 M^−1sec−^1”. The “KS(calc)” value on mPAO [1] (true KS calculated from apparent KS′ with KS = KS′(1 + KO/[O2])) was 3.1 ± 0.3 µM. For the same molecule, the kcat on mPAO [1] (true value, saturating substrate (3.7 mM), buffer saturated with pure O2 (1.12 mM)) turned out to be 8.0 ± 0.8 s⁻¹. At mPAO [2] (2,4-dinitrophenylhydrazine HPLC), the “3-acetamidopropanal produced on complete oxidation by PAO” value is given as “equivalent amount”. Also, on mPAO [2] (pH 7.6, catalase present, dansyl chloride HPLC), the “polyamine product of complete PAO oxidation (Spd or putrescine)” value is “stoichiometric amounts”.
